How the values were obtained:
[1] = molecular target: adenosine A2B receptor (Homo sapiens (Human), UniProt P29275); assay: Adenosine receptor activity assay (Table 1), A2B activity; assay type: biochemical; conditions: for IC50: read-out: Ave A2B cAMP IC50
[2] = molecular target: adenosine A2A receptor (Homo sapiens (Human), UniProt P29274); assay: Adenosine receptor activity assay (Table 1), A2A activity; assay type: biochemical; conditions: read-out: Ave A2A cAMP IC50
[3] = A2A activity to A2B activity (A2A/A2B)

adenosine A2A receptor, sequence (P29274 whole entry): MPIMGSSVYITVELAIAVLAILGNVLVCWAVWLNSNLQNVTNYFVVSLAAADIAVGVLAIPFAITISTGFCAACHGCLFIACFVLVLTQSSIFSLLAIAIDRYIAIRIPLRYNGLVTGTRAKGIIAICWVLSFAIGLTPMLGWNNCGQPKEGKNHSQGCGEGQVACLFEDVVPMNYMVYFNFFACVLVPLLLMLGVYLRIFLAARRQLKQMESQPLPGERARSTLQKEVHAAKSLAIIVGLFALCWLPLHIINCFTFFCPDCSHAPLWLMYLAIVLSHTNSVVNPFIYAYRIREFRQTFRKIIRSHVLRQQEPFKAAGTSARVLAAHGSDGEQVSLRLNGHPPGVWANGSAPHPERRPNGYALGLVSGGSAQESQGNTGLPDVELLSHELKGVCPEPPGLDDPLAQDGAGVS
adenosine A2B receptor, sequence (P29275 whole entry): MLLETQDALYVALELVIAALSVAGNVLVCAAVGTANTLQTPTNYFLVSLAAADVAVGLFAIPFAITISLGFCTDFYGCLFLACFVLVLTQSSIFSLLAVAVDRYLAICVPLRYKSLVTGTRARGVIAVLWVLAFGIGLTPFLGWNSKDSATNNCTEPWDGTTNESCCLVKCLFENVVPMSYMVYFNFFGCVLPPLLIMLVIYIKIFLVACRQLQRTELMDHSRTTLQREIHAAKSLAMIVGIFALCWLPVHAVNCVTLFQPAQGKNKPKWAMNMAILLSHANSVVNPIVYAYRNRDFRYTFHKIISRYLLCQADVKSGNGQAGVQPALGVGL

Row | IC50 [1] [nM] | IC50 [2] [nM] | Ratio [1, 3] | Ratio ([1]; A2A activity to the A2B activity, A2A/A2B) | Compound
1 | 10 to 50 | 100 to 500 |  |  | C[C@H](Nc1nc(C(=O)N2CCCC2)c2sccc2n1)c1ccnc(F)c1 [Example Z406, (S)-(2-((1-(2-Fluoropyridin-4-yl)ethyl)amino)thieno[3,2-d]pyrimidin-4-yl)(pyrrolidin-1-yl)methanone]
2 | 100 to 500 | > 500 | 16.94 |  | C[C@H](O)CNC(=O)c1nc(NCc2cncc(C(F)(F)F)c2)nc2ccsc12 [Example Z265, (S)—N-(2-Hydroxypropyl)-2-(((5-(trifluoromethyl)pyridin-3-yl)methyl)amino)thieno[3,2-d]pyrimidine-4-carboxamide]
3 | 50 to 100 | 100 to 500 | 1.97 |  | C[C@H](Nc1nc(C(=O)NCC2CCN(Cc3ccccc3)CC2)c2sccc2n1)c1cccnc1 [Example Z27, (S)—N-((1-benzylpiperidin-4-yl)methyl)-2-((1-(pyridin-3-yl)ethyl)amino)thieno[3,2-d]pyrimidine-4-carboxamide]
4 | 10 to 50 | 100 to 500 | 36.14 |  | O=C(c1nc(NCc2cc(F)cc(F)c2)nc2ccsc12)N1CCC1 [Example Z168, Azetidin-1-yl(2-((3,5-difluorobenzyl)amino)thieno[3,2-d]pyrimidin-4-yl)methanone]
5 | 100 to 500 | > 500 | 6.84 |  | CCc1cc2nc(N[C@@H](C)c3cccnc3)nc(C(=O)N3CCCC3)c2s1 [Example Z214, (S)-(6-Ethyl-2-((1-(pyridin-3-yl)ethyl)amino)thieno[3,2-d]pyrimidin-4-yl)(pyrrolidin-1-yl)methanone]
6 | 100 to 500 | > 500 | 1.96 |  | C[C@H](Nc1nc(C(=O)N2CCC(C(=O)OC(C)(C)C)C2)c2sccc2n1)c1ccccn1 (stereo partly drawn) [Example Z355, tert-Butyl 1-(2-(((S)-1-(pyridin-2-yl)ethyl)amino)thieno[3,2-d]pyrimidine-4-carbonyl)pyrrolidine-3-carboxylate]
7 | 100 to 500 | > 500 | 69.69 |  | CNC1CN(C(=O)c2nc(NCc3cncc(F)c3)nc3ccsc23)C1 [Example Z358, (2-(((5-Fluoropyridin-3-yl)methyl)amino)thieno[3,2-d]pyrimidin-4-yl)(3-(methylamino)azetidin-1-yl)methanone]
8 | > 500 | > 500 | 13.21 |  | C[C@H](Nc1nc(C(=O)N2CCC(C(=O)O)C2)c2sccc2n1)c1ccccn1 (stereo partly drawn) [Example Z380, 1-(2-(((S)-1-(Pyridin-2-yl)ethyl)amino)thieno[3,2-d]pyrimidine-4-carbonyl)pyrrolidine-3-carboxylic acid]
9 | 100 to 500 | > 500 | 4.17 |  | COc1cncc(CNc2nc(C(=O)N3CCC3)c3sccc3n2)c1 [Example Z116, Azetidin-1-yl(2-(((5-methoxypyridin-3-yl)methyl)amino)thieno[3,2-d]pyrimidin-4-yl)methanone]
10 | 10 to 50 | 50 to 100 |  | 4.79 | C[C@H](Nc1nc(C(=O)N2CC(CN(C)C(=O)CC(C)(C)C)C2)c2sccc2n1)c1cncc(F)c1 [Example Z550, (S)—N-((1-(2-((1-(5-Fluoropyridin-3-yl)ethyl)amino)thieno[3,2-d]pyrimidine-4-carbonyl)azetidin-3-yl)methyl)-N,3,3-trimethylbutanamide]
11 | > 500 | 100 to 500 | 0.50 |  | C[C@H](Nc1nc(C(=O)NCc2cncc(C#N)c2)c2sccc2n1)c1cccnc1 [Example Z104, (S)—N-((5-Cyanopyridin-3-yl)methyl)-2-((1-(pyridin-3-yl)ethyl)amino)thieno[3,2-d]pyrimidine-4-carboxamide]
12 | 10 to 50 | 100 to 500 | 33.74 |  | C[C@H](Nc1nc(C(=O)N2CCC2)c2sc(N)cc2n1)c1cccnc1 [Example Z203, (S)-(6-Amino-2-((1-(pyridin-3-yl)ethyl)amino)thieno[3,2-d]pyrimidin-4-yl)(azetidin-1-yl)methanone]

Source: patent US11254686B1 (Corvus Pharmaceuticals, Inc., priority 2017, dated 2022)
